Laboratory results from US10077261B2, “Imidazolin-5-one derivative useful as FASN inhibitors for the treatment of cancer” (Janssen Pharmaceutica NV, priority 2012, dated 2018).
pIC50: −log10 of the molar value. One block for each compound: values may come before it.

Key:
[1] = test system: LNCaP-Vancouver prostate cells; test: In vitro LNCaP Vancouver prostate cell proliferation assay in lipid reduced medium; type: cell-based; settings: read-out: pIC50 LNCaP_Vancouver prostate cell (converted)
[2] = test system: PC-3M-Luc-C6 prostate cells; test: In vitro PC-3M-Luc-C6 prostate cell proliferation assay in lipid reduced medium; type: cell-based; settings: 96 h, read-out: pIC50 PC-3M-Luc-C6 prostate cell (converted)
[3] = molecular target: Fatty Acid Synthase Keto-reductase Domain (FASN KR) (Homo sapiens, UniProt P49327); test: Fatty Acid Synthase keto-reductase domain (FASN KR) inhibition, NADPH oxidation at 340 nm
Fatty Acid Synthase Keto-reductase Domain (FASN KR), sequence (P49327 whole entry, the tested form may be a part): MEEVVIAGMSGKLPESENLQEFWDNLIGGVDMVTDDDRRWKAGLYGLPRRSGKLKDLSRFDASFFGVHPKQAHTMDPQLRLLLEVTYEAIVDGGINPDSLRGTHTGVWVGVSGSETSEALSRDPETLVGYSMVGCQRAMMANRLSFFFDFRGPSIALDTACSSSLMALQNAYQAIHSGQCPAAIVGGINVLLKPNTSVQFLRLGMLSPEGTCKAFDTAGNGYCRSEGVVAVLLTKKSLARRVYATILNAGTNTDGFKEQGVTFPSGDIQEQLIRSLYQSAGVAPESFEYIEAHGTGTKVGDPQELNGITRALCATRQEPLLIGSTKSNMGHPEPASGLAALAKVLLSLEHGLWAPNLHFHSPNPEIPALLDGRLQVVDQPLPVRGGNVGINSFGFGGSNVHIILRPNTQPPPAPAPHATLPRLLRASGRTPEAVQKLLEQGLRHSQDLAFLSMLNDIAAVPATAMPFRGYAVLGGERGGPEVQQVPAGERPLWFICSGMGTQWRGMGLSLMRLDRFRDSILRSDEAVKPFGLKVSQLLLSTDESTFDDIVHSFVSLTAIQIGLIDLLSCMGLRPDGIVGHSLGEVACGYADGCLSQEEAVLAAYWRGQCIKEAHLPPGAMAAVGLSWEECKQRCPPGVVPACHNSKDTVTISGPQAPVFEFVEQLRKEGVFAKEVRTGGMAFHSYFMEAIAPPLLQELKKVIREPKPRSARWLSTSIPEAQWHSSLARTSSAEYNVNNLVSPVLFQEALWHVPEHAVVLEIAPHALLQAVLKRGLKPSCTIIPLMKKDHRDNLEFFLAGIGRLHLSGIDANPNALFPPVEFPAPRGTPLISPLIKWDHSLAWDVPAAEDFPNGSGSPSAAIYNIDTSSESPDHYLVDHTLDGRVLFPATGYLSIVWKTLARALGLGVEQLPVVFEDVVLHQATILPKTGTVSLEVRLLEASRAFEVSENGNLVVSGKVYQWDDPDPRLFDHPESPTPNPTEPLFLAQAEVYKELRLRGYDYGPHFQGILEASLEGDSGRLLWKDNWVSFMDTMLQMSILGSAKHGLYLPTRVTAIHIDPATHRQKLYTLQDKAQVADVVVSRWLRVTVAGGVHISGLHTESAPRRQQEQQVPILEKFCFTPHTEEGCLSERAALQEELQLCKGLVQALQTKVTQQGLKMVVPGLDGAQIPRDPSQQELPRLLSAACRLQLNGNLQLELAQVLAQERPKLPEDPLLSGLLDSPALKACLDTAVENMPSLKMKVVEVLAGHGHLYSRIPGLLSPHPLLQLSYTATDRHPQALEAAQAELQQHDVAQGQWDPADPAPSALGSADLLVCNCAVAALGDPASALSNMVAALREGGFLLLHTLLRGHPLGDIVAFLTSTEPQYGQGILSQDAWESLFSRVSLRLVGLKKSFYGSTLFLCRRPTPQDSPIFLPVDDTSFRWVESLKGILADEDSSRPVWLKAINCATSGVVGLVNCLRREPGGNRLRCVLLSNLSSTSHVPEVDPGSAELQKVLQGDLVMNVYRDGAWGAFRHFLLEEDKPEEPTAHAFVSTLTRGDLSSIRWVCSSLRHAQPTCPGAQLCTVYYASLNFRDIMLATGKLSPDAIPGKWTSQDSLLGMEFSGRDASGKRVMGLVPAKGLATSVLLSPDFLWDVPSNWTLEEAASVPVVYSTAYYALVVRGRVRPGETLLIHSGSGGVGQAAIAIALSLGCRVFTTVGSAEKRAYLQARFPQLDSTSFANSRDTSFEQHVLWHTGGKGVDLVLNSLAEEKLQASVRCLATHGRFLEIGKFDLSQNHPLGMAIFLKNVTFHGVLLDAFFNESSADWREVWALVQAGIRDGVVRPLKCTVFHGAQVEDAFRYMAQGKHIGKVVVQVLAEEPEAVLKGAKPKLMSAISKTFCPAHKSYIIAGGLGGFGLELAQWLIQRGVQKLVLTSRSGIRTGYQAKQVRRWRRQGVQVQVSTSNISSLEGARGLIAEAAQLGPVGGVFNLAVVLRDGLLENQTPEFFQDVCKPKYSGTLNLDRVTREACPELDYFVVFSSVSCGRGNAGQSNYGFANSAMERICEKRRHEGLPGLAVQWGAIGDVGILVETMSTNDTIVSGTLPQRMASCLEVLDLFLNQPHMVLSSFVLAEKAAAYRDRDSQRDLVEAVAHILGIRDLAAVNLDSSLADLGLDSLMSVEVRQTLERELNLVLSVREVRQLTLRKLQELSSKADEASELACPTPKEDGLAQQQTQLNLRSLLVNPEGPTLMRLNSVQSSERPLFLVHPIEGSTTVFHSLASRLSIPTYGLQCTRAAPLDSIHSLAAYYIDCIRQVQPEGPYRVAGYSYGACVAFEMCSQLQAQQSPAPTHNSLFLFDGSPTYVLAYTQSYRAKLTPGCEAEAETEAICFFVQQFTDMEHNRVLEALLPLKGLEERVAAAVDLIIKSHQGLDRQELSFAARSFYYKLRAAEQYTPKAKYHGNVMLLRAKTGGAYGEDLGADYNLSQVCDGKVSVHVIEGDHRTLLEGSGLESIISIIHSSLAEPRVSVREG
Method: After 20 minutes incubation at room temperature the plate was measured again (T2).
The decrease in absorbance was calculated as (Absorbance before incubation T1)−(Absorbance following incubation T2).
A plot of Controlmin versus test compound concentration was fitted to a 4-parameter logistic curve using a non-linear least squares regression method.

[4] = molecular target: T1, hFASN enzyme (full length) (Homo sapiens, UniProt P49327); test: Fatty Acid Synthase (FASN) inhibition scintillation proximity assay; type: biochemical; settings: for inhibition at 10 µM: read-out: Human FASN % inhibition @ 10 μM, 10 μM test compound; for IC50: read-out: Human FASN pIC50 (converted)
T1 construct: 10 μL hFASN enzyme (full length, 300 ng, purified in house); made in house
T1 sequence (P49327 whole entry): as the sequence (P49327 whole entry, the tested form may be a part) above
Method in brief: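 Read-out relies on hydrophobic ³H-palmitate product, formed from ³H-acetyl-CoA and malonyl-CoA, binding streptavidin imaging beads, measured at 610±20 nm after at least 24 h. Full-length enzyme (300 ng) in phosphate buffer pH 7.5 with DTT; eight compound concentrations, 0.01–30 μM.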

A2780 ovarian cells [5] = test: A2780 ovarian cell proliferation assay in lipid reduced medium, with palmitate (MTT); type: cell-based; settings: Homo sapiens, A2780, 96 h; read-out: pIC50 A2780 Ovarian Cell, With Palmitate (converted)
Method in brief: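 In this palmitate-supplemented format, compound dilutions (30 μM down to 0.01 μM) are added to cells in lipid-reduced serum with 25 μM palmitate, 0.2% fatty-acid-free BSA and 0.25% ethanol. After four days (96 h) MTT absorbance at 544 nm is recorded and fitted by minimum sum of squares.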

A2780 ovarian cells [6] = test: A2780 ovarian cell proliferation assay in lipid reduced medium, without palmitate (MTT); type: cell-based; settings: Homo sapiens, A2780, 96 h; read-out: pIC50 A2780 Ovarian Cell, Without Palmitate (converted)

Structure (SMILES): Cc1cc(-c2ccc(-c3cnn(C4CC4)c3)cc2)ccc1C1=NC2(CC2)C(=O)N1CC1CN(C(=O)C2(C)CC2)C1 [compound 337, 5-(4′-(1-cyclopropyl-1H-pyrazol-4-yl)-3-methyl-[1,1′-biphenyl]-4-yl)-6-((1-(1-methylcyclopropanecarbonyl)azetidin-3-yl)methyl)-4,6-diazaspiro[2.4]hept-4-en-7-one]
IC50 [1]: 79.4 nM | IC50 [2]: 20.4 nM | pIC50 [3]: 7.10 | inhibition at 10 µM [4]: 105% | IC50 [4]: 36.3 nM | IC50 (A2780 ovarian cells [5]): 6920 nM | IC50 (A2780 ovarian cells [6]): 38 nM

Structure (SMILES): Cc1cc2cc(-c3ccc(C4=NC5(CC5)C(=O)N4C[C@@H]4CCN(C(=O)C5(O)CC5)C4)c(F)c3)ccc2o1 [compound 355, (R)-5-(2-fluoro-4-(2-methylbenzofuran-5-yl)phenyl)-6-((1-(1-hydroxycyclopropanecarbonyl)pyrrolidin-3-yl)methyl)-4,6-diazaspiro[2.4]hept-4-en-7-one]
IC50 [1]: 575 nM | IC50 [2]: 58.9 nM | pIC50 [3]: 7.37 | inhibition at 10 µM [4]: 96% | IC50 [4]: 30.2 nM | IC50 (A2780 ovarian cells [5]): > 10000 nM | IC50 (A2780 ovarian cells [6]): 30.2 nM

Structure (SMILES): O=C(C1CC1)N1CC(CN2C(=O)C3(CC3)N=C2c2ccc(-c3ccc(-c4cnn(C5CC5)c4)cc3)cc2F)C1 [compound 328, 6-((1-(cyclopropanecarbonyl)azetidin-3-yl)methyl)-5-(4′-(1-cyclopropyl-1H-pyrazol-4-yl)-3-fluoro-[1,1′-biphenyl]-4-yl)-4,6-diazaspiro[2.4]hept-4-en-7-one]
IC50 [1]: 53.7 nM | IC50 [2]: 16.2 nM | pIC50 [3]: 7.10 | inhibition at 10 µM [4]: 98% | IC50 [4]: 31.6 nM | IC50 (A2780 ovarian cells [5]): 10000 nM | IC50 (A2780 ovarian cells [6]): 5.13 nM

Structure (SMILES): Cn1cnc2cc(-c3ccc(C4=NC5(CC5)C(=O)N4CC4CN(C(=O)C5(O)CC5)C4)c(F)c3)ccc21 [compound 377, 5-(2-fluoro-4-(1-methyl-1H-benzo[d]imidazol-5-yl)phenyl)-6-((1-(1-hydroxycyclopropanecarbonyl)azetidin-3-yl)methyl)-4,6-diazaspiro[2.4]hept-4-en-7-one]
IC50 [1]: 81.3 nM | IC50 [2]: 28.2 nM | pIC50 [3]: ~7.44 | inhibition at 10 µM [4]: 100% | IC50 [4]: 35.5 nM | IC50 (A2780 ovarian cells [5]): > 10000 nM | IC50 (A2780 ovarian cells [6]): 22.9 nM

Structure (SMILES): Cn1cc(-c2ccc(-c3ccc(C4=NC5(CC5)C(=O)N4C[C@@H]4CCN(C(=O)C5CC5)C4)cc3)cc2)cn1 [compound 65, (R)-6-((1-(Cyclopropanecarbonyl)pyrrolidin-3-yl)methyl)-5-(4′-(methyl-1H-pyrazol-4-yl)-[1,1′-biphenyl]-4-yl)-4,6-diazaspiro[2.4]hept-4-en-7-one]
IC50 [1]: 66.1 nM | IC50 [2]: ~24.5 nM | FASN Keto-reductase Domain pIC50 ([3]; NADPH oxidation, absorbance at 340 nm, ethyl acetoacetate substrate): 7.27 | Human FASN pIC50 ([4]; hFASN enzyme full length, scintillation proximity assay, "~" = standard error of pIC50 larger than 0.5): 7.55 | inhibition at 10 µM [4]: 101% | IC50 (A2780 ovarian cells [5]): > 10000 nM | IC50 (A2780 ovarian cells [6]): ~13.2 nM

Structure (SMILES): Cc1sc2ccc(-c3ccc(C4=NC5(CC5)C(=O)N4C[C@@H]4CCN(C(=O)C5CC5)C4)c(F)c3)cc2c1C [compound 245]
IC50 [1]: ~1700 nM | IC50 [2]: ~646 nM | pIC50 [3]: 7.43 | inhibition at 10 µM [4]: 98% | IC50 [4]: 32.4 nM | IC50 (A2780 ovarian cells [5]): > 10000 nM | IC50 (A2780 ovarian cells [6]): 1550 nM

Structure (SMILES): O=C(C1CC1)N1CC(CN2C(=O)C3(CC3)N=C2c2ccc(-c3cccc4[nH]ncc34)cc2)C1 [compound 300, 5-(4-(1H-indazol-4-yl)phenyl)-6-((1-(cyclopropanecarbonyl)azetidin-3-yl)methyl)-4,6-diazaspiro[2.4]hept-4-en-7-one]
IC50 [1]: 1910 nM | IC50 [2]: 123 nM | pIC50 [3]: 6.90 | inhibition at 10 µM [4]: 102% | IC50 [4]: 57.5 nM | IC50 (A2780 ovarian cells [5]): > 10000 nM | IC50 (A2780 ovarian cells [6]): 74.1 nM

Structure (SMILES): O=C(C1CC1)N1CC[C@@H](CN2C(=O)C3(CC3)N=C2c2ccc(-c3ccc4cc[nH]c4c3)c(F)c2)C1 [compound 236, (R)-6-((1-(cyclopropanecarbonyl)pyrrolidin-3-yl)methyl)-5-(3-fluoro-4-(1H-indol-6-yl)phenyl)-4,6-diazaspiro[2.4]hept-4-en-7-one]
IC50 [1]: 646 nM | IC50 [2]: 51.3 nM | pIC50 [3]: 7.02 | inhibition at 10 µM [4]: 98% | IC50 [4]: 34.7 nM | IC50 (A2780 ovarian cells [5]): > 10000 nM | IC50 (A2780 ovarian cells [6]): ~89.1 nM

Continued, values first:

IC50 [1]: 646 nM | IC50 [2]: 83.2 nM | pIC50 [3]: 6.77 | inhibition at 10 µM [4]: 91% | IC50 [4]: 135 nM | IC50 (A2780 ovarian cells [5]): 6610 nM | IC50 (A2780 ovarian cells [6]): 63.1 nM
Structure (SMILES): Cn1ncc2cc(-c3ccc(C4=NC5(CC5)C(=O)N4CC4CN(C(=O)C5CC5)C4)c(Cl)c3)ccc21 [compound 584, 5-[2-Chloro-4-(1-methyl-1H-indazol-5-yl)phenyl]-6-{[1-(cyclopropylcarbonyl)azetidin-3-yl]methyl}-4,6-diazaspiro[2.4]hept-4-en-7-one]

IC50 [1]: 269 nM | IC50 [2]: 126 nM | pIC50 [3]: 6.59 | inhibition at 10 µM [4]: 101% | IC50 [4]: 110 nM | IC50 (A2780 ovarian cells [5]): > 10000 nM | IC50 (A2780 ovarian cells [6]): 91.2 nM
Structure (SMILES): Cc1cc(-c2ccc3c(cnn3C)c2)ccc1C1=NC2(CC2)C(=O)N1CC1CN(C(=O)C2CCO2)C1 (centres unmarked) [compound 545, 5-[2-Methyl-4-(1-methyl-1H-indazol-5-yl)phenyl]-6-{[1-(oxetan-2-ylcarbonyl)azetidin-3-yl]methyl}-4,6-diazaspiro[2.4]hept-4-en-7-one]

IC50 [1]: 380 nM | IC50 [2]: 30.9 nM | pIC50 [3]: 7.26 | inhibition at 10 µM [4]: 104% | IC50 [4]: 41.7 nM | IC50 (A2780 ovarian cells [5]): > 10000 nM | IC50 (A2780 ovarian cells [6]): 25.1 nM
Structure (SMILES): O=C(C1CC1)N1CC[C@@H](CN2C(=O)C3(CCCC3)N=C2c2ccc(-c3ccc4cn[nH]c4c3)cc2F)C1 [compound 879, (R)-3-((1-(cyclopropanecarbonyl)pyrrolidin-3-yl)methyl)-2-(2-fluoro-4-(1H-indazol-6-yl)phenyl)-1,3-diazaspiro[4.4]non-1-en-4-one]

IC50 [1]: 1150 nM | IC50 [2]: 234 nM | pIC50 [3]: 6.67 | inhibition at 10 µM [4]: 97% | IC50 [4]: 195 nM | IC50 (A2780 ovarian cells [5]): > 10000 nM | IC50 (A2780 ovarian cells [6]): 95.5 nM
Structure (SMILES): O=C(C1CC1)N1CC(CN2C(=O)C3(CC3)N=C2c2ccc(-c3ccc4[nH]ccc4c3)c(F)c2)C1 [compound 440, 6-{[1-(Cyclopropylcarbonyl)azetidin-3-yl]methyl}-5-[3-fluoro-4-(1H-indol-5-yl)phenyl]-4,6-diazaspiro[2.4]hept-4-en-7-one]

IC50 [1]: 1350 nM | IC50 [2]: 302 nM | pIC50 [3]: 6.27 | inhibition at 10 µM [4]: 96% | IC50 [4]: 170 nM | IC50 (A2780 ovarian cells [5]): > 10000 nM | IC50 (A2780 ovarian cells [6]): 148 nM
Structure (SMILES): O=C(C1CC1)N1CC(CN2C(=O)C3(CC3)N=C2c2ccc(-c3cc4ccccc4cn3)cc2)C1 [compound 531, 6-{[1-(Cyclopropylcarbonyl)azetidin-3-yl]methyl}-5-(4-isoquinolin-3-ylphenyl)-4,6-diazaspiro[2.4]hept-4-en-7-one]

IC50 [1]: 2140 nM | IC50 [2]: 437 nM | pIC50 [3]: 6.29 | inhibition at 10 µM [4]: 92% | IC50 [4]: 617 nM | IC50 (A2780 ovarian cells [5]): 6170 nM | IC50 (A2780 ovarian cells [6]): 708 nM
Structure (SMILES): N#Cc1ccc2ccc(-c3ccc(C4=NC5(CC5)C(=O)N4CC4CN(C(=O)C5(O)CC5)C4)c(F)c3)cc2c1 [compound 621, 7-{3-Fluoro-4-[6-({1-[(1-hydroxycyclopropyl)carbonyl]azetidin-3-yl}methyl)-7-oxo-4,6-diazaspiro[2.4]hept-4-en-5-yl]phenyl}naphthalene-2-carbonitrile]

IC50 [1]: 3240 nM | IC50 [2]: 631 nM | pIC50 [3]: 6.42 | inhibition at 10 µM [4]: 101% | IC50 [4]: 186 nM | IC50 (A2780 ovarian cells [5]): > 10000 nM | IC50 (A2780 ovarian cells [6]): ~224 nM
Structure (SMILES): O=C(C1CC1)N1CC(CN2C(=O)C3(CC3)N=C2c2ccc(-c3cccc(NS(=O)(=O)C4CC4)c3)cc2F)C1 [compound 619, N-[4′-(6-{[1-(Cyclopropylcarbonyl)azetidin-3-yl]methyl}-7-oxo-4,6-diazaspiro[2.4]hept-4-en-5-yl)-3′-fluorobiphenyl-3-yl]cyclopropanesulfonamide]

IC50 [1]: 1150 nM | IC50 [2]: 309 nM | pIC50 [3]: 7.02 | inhibition at 10 µM [4]: 100% | IC50 [4]: 66.1 nM | IC50 (A2780 ovarian cells [5]): > 10000 nM | IC50 (A2780 ovarian cells [6]): 132 nM
Structure (SMILES): COc1cccc2ccc(-c3ccc(C4=NC5(CC5)C(=O)N4CC4CN(C(=O)C5CC5)C4)c(F)c3)cc12 [compound 380, 6-((1-(cyclopropanecarbonyl)azetidin-3-yl)methyl)-5-(2-fluoro-4-(8-methoxynaphthalen-2-yl)phenyl)-4,6-diazaspiro[2.4]hept-4-en-7-one]

IC50 [1]: > 10000 nM | IC50 [2]: 4170 nM | pIC50 [3]: 5.06 | inhibition at 10 µM [4]: 84% | IC50 [4]: 1120 nM | IC50 (A2780 ovarian cells [5]): ~10000 nM | IC50 (A2780 ovarian cells [6]): 2340 nM
Structure (SMILES): Cc1cc(-c2ccc3ccc(C#N)nc3c2)ccc1C1=NC2(CC2)C(=O)N1CC1CN(C(=O)C2(C)CC2)C1 [compound 604, 7-{3-Methyl-4-[6-({1-[(1-methylcyclopropyl)carbonyl]azetidin-3-yl}methyl)-7-oxo-4,6-diazaspiro[2.4]hept-4-en-5-yl]phenyl}quinoine-2-carbonitrile]
